Test system: gene expression profile of heart, output variable Age
Test: Classification of gene expression profile for age (Young/Old) using supervised learning, Support Vector Machine
Type: in vivo, mice
Experimental: Male B6C3F, mice (6-7 weeks of age) were purchased from Harlan Sprague Dawley. Mice were housed singly and provided water ad libitum. The control group (OC, N=5) was fed 98 kcal/week of modified AIN-93M semi-purified diet (Bio-serv, Frenchtown, N.J.), which provides approximately 15% fewer calories than the average ad libitum dietary intake. The treatment group (RES, N=5) was fed the same caloric intake as controls, but were supplemented with resveratrol 50 mg/kg diet (w/w) (3,4′,5-Trihydroxy-trans-stilbene; Sigma) from 14 months of age. Animals (OC and RES) were sacrificed at 30 months of age. Young animals were sacrificed at 5 months of age (YC, N=5). Hearts from all abovementioned groups were collected, immediately frozen in liquid nitrogen and stored at −80° C. until analysis.
Total RNA was extracted from frozen tissue by using TRIZOL reagent (Life Technologies, Grand Island, N.Y.). Polyadenylate [poly(A)^+] RNA was purified from total RNA with oligo-dT-linked oligotex resin (Qiagen, Valencia, Calif.). […]
For the classification analysis, supervised learning using Support Vector Machine (SVM) was performed based on supplied training data, “Young (YC)” and “Old (OC)” groups, to find rules for predicting the output variable “Age”. […] Results from the resveratrol group were then analysed using the Classification function for prediction of the output variable, “Age”. […]

Structure (SMILES): Oc1ccc(/C=C/c2cc(O)cc(O)c2)cc1 [resveratrol, 3,4′,5-Trihydroxy-trans-stilbene]
- Classification of chips for output variable Age (all 4 chips of resveratrol group): classified as Young
- Average of g (mean classification output of group) (mean of 4 chips of the RES group, YC 0.9998575, OC −1.023992): 0.3486

— patent US20090247646A1, “USE OF RESVERATROL AND DERIVATIVES THEREOF FOR PROMOTING THE WELLNESS STATE IN MAMMALS” (priority 2006, published 2009)
